In PubChem BioAssay AID1996:
Values after ≈ are worked out from the molar mass of the structure shown.

details: buffer; pH 7.4; 200.0 µM

Row | solubility kinetic [µg/mL] | Structure (SMILES)
1 | 12.3 (≈ 32.2 µM) | O=C(COC(=O)COc1ccccc1)Nc1ccc(Br)cc1F
2 | > 32.6 | O=C(Nc1ncccn1)c1cccc(F)c1
3 | < 0.6 | CCOc1ccc(C(=O)Oc2ccc(NC(C)=O)cc2)cc1
4 | 35.9 (≈ 101 µM) | O=C(C1CCN(S(=O)(=O)c2ccc(Cl)cc2)CC1)N1CCCC1
5 | 20.6 (≈ 59.8 µM) | CSc1ncccc1C(=O)OCC(=O)NCCCc1ccccc1
6 | 23.8 (≈ 93.6 µM) | S=C(Nc1ccccc1)N1CCc2ccccc21
7 | > 42.6 | O=C(c1cccc([N+](=O)[O-])c1)N1CC2C3C=CC(C3)C2C1 (stereo not drawn)
8 | > 41.7 | CCOC(=O)c1ccc(NC(=O)N2CCOCC2)cc1
9 | < 0.4 | CCOc1ccccc1NC(=O)c1ccc2c(c1)C(=O)N(CC(C)C)C2=O
10 | 3.1 (≈ 9.92 µM) | Cc1ccc(NC(=O)COCC(=O)Nc2ccc(C)cc2)cc1
11 | > 32.9 | CC(C)(C)NC(=O)c1ccc2c(c1)CCO2
12 | 43.8 (≈ 132 µM) | CC(C)(C)c1cc(CCC(=O)N2CCCC2)cc(C(C)(C)C)c1O
13 | > 25.7 | CCOC(=O)C1CCCNC1=O (stereo not drawn)
14 | 3.5 (≈ 10.8 µM) | COc1ccc(CNC(=O)N2CCN(c3ccccc3)CC2)cc1
15 | 30.3 (≈ 58.3 µM) | Cc1cccc(N2CCN(C(=O)c3ccc(NC(=O)CC4SC(N5CCCC5)=NC4=O)cc3)CC2)c1C (stereo not drawn)
16 | 34 (≈ 133 µM) | COC(=O)[C@@H](NC(=O)N1CCC(C)CC1)C(C)C
17 | 50.5 (≈ 145 µM) | CCCCN1C(=O)C(C)=C(C)C1OCCc1ccc(OC)c(OC)c1 (stereo not drawn)
18 | 15.7 (≈ 55.8 µM) | O=S(=O)(c1cccc2nonc12)N1CCCCCC1
19 | 40.2 (≈ 143 µM) | Cc1cc(NS(=O)(=O)c2ccc(C(C)C)cc2)no1
20 | 4.5 (≈ 13.1 µM) | COc1cc(C(=O)NCCCCc2ccccc2)cc(OC)c1OC
21 | 45.2 (≈ 135 µM) | CCOc1c(C)cc(S(=O)(=O)NCc2cccnc2)c(C)c1C
22 | > 44.9 | Cc1cccnc1NC(=O)CNC(=O)COc1ccccc1
23 | 11.7 (≈ 32.9 µM) | COc1cccc(C(=O)OCC(=O)N2CCc3ccccc3C2)c1OC
24 | > 37.2 | Cc1ccccc1NC(=O)Cc1nnc(N)s1

Row | solubility kinetic [µg/mL] | Structure (SMILES)
25 | 1.4 (≈ 4.4 µM) | C=CCc1cccc(CNc2ccc(Br)cc2)c1O
26 | 7.4 (≈ 15.1 µM) | NS(=O)(=O)c1cccc(Nc2nc3ccccc3nc2NS(=O)(=O)c2ccc(Cl)cc2)c1
27 | 29 (≈ 83.5 µM) | CCOc1ccc(/C=C\c2nc(O)c([N+](=O)[O-])c(=O)[nH]2)cc1OCC
28 | > 51.4 | COc1ccc(NC(=O)C2CCCN(S(C)(=O)=O)C2)c(OC)c1 (stereo not drawn)
29 | 35.8 (≈ 143 µM) | CCOC(=O)Cn1cc(Cl)c(=O)c(Cl)c1
30 | > 47.8 | CC1CCN(CCC(=O)N/N=C/c2ccc([N+](=O)[O-])cc2)CC1
31 | 36.5 | COc1ccc(OCC2CCNCC2)cc1.Cl
32 | > 42.8 | Cc1ccc(S(=O)(=O)N2CC(O)CC2C(=O)O)cc1 (stereo not drawn)
33 | 51.1 (≈ 147 µM) | CCN1CCN(c2nc3c(C)cccn3c(=O)c2C=C(C#N)C#N)CC1
34 | 12.2 (≈ 36.9 µM) | COc1ccc(OC)c(Nc2c3ccccc3nc3ccccc23)c1
35 | > 39 | Fc1ccc(NC(=S)NCc2ccccc2)cc1
36 | > 26.6 | CC1=N/C(=C/c2ccco2)C(=O)O1
37 | 29.6 (≈ 125 µM) | CSc1ccc(C(=S)N2CCCC2)cc1
38 | 13.5 (≈ 42.5 µM) | CCCC(=O)N1CCN(c2nc3ccc(CC)cc3s2)CC1
39 | > 37.5 | CC(=O)c1cc(N2CCOCC2)ccc1[N+](=O)[O-]
40 | > 48 | Nc1ncnc2c1ncn2C1OC(C(=O)NC2CC2)C(O)C1O (stereo not drawn)
41 | > 64.1 | CCCCCCCCCC(=O)N[C@H](CN1CCOCC1)[C@H](O)c1ccccc1.Cl
42 | 47.5 | CCCCNC1c2ccccc2C(=O)N1Cc1ccccc1.Cl (stereo not drawn)
43 | 8.5 (≈ 37.9 µM) | Brc1ccccc1-c1cnco1
44 | 30.6 (≈ 100 µM) | C=CCNC(=O)C1CC1(c1ccc(C)cc1)c1ccc(C)cc1 (stereo not drawn)
45 | > 42.5 | O=C1c2ccc([N+](=O)[O-])cc2C(=O)N1Cc1cccnc1
46 | 8.7 (≈ 28.9 µM) | O=C(CN1CCc2ccccc2C1)Nc1ccccc1Cl
47 | 31.3 (≈ 107 µM) | N/C(=N\OC(=O)c1cccc2ccccc12)c1ccncc1
48 | 46.9 | CC1CCCN1CC#CC(O)(c1ccccc1)c1ccccc1.Cl (stereo not drawn)

Continued, compound first:

Row | Structure (SMILES) | solubility kinetic [µg/mL]
49 | CC(=O)Cc1nsc(NC(=O)c2ccccc2Cl)n1 | > 44.4
50 | O=C(COC(=O)c1ccccc1O)Nc1ncc(Cl)cc1Cl | 23.5 (≈ 68.9 µM)
51 | O=C(O)C1CCN(C(=O)CSc2nnc3ccccn23)CC1 | > 48.1
52 | O=C(COC(=O)Cc1ccc(Br)cc1)NC1CCCC1 | > 51
53 | Cc1cccc(C(=O)NC(=O)Nc2c(C)cc(C)nc2C)c1 | > 44.6
54 | CC(C)OC(=O)Cn1cc(C#N)c2ccccc21 | > 36.3
55 | Cc1nc(SCC(=O)NC2CCCC2)[nH]c(=O)c1C | 38.4 (≈ 136 µM)
56 | CCOC(=O)Cc1csc(NC(=O)/C=C/c2ccccc2Cl)n1 | < 0.4
57 | CCOC(=O)C1CCCN(C/C=C/c2ccccc2)C1 (stereo not drawn) | 20.5 (≈ 75 µM)
58 | CC1(c2ccc([N+](=O)[O-])cc2)Nc2ccccc2S1 (stereo not drawn) | 12.1 (≈ 44.4 µM)
59 | Cc1cc(C)nc(N2Cc3ccccc3C2=N)n1 | > 35.7
60 | COc1cc(NC(=S)Nc2cccnc2)cc(OC)c1 | < 0.2
61 | N#Cc1ccc(C(CC(=O)O)N2Cc3ccccc3C2=O)cc1 (stereo not drawn) | 44 (≈ 144 µM)
62 | CC(C)(C)c1ccc(C(=O)NC(=O)COC(=O)c2ccc(Br)o2)cc1 | 12.5 (≈ 30.6 µM)
63 | CCOC(=O)c1ccc(NC(=O)Nc2ccon2)cc1 | 6 (≈ 21.8 µM)
64 | Cl.OC(CNCc1ccc(-c2ccccc2)cc1)c1ccccc1 (stereo not drawn) | 1.6
65 | O=C(Nc1ccccc1)OC1CCCCc2cccnc21 (stereo not drawn) | 41.6 (≈ 147 µM)
66 | COc1cccc(NC(=S)N2CCc3cc(OC)c(OC)cc3C2)c1 | 4.9 (≈ 13.7 µM)
67 | O=C1OC(c2ccc(Cl)cc2)=C/C1=C/c1cccnc1 | 0.7 (≈ 2.47 µM)
68 | COc1ccc(S(=O)(=O)NCc2cccnc2)cc1OC | > 46.3

Row | Structure (SMILES) | solubility kinetic [µg/mL]
69 | CC(=O)Nc1ccc(S(=O)(=O)N2CCNC(=O)C2)cc1 | > 44.6
70 | O=C(Cn1cc(/C=C\[N+](=O)[O-])c2ccccc21)Nc1ccccc1 | 2.2 (≈ 6.85 µM)
71 | Cc1ccc2cc(N)ccc2n1 | > 23.7
72 | COc1ccccc1-c1nc(=S)c(C(C)=O)c(C)[nH]1 | > 41.2
73 | CC(C)NC(=O)c1ccc(N(Cc2ccccc2)S(C)(=O)=O)cc1 | 11.1 (≈ 32 µM)
74 | COC(=O)CN(c1cccc(C)c1)S(=O)(=O)c1ccccc1 | 41.7 (≈ 131 µM)
75 | N#C/C(=C\c1cccs1)C(=O)N1CCOCC1 | 35.5 (≈ 143 µM)
76 | Cc1cc(C)cc(OCCN2CCOCC2)c1 | 22.5 (≈ 95.6 µM)
77 | Cc1cccc(C)c1NC(=O)C(C)N1CCCCC1 (stereo not drawn) | 38.3 (≈ 147 µM)
78 | COc1ccc(-n2cc([N+](=O)[O-])c(=O)c3ccc(Cl)cc32)cc1 | 0.7 (≈ 2.12 µM)
79 | COc1ccccc1NC(=O)c1cc[n+]([O-])cc1 | > 36.6
80 | COc1cccc(NC(=O)NCc2ccccn2)c1 | > 38.6
81 | O=C1[C@@H]2[C@H]3CC[C@H](C3)[C@@H]2C(=O)N1O | 27 (≈ 149 µM)
82 | CCOc1cc(CNc2ccc(N3CCCC3)cc2)cc(Cl)c1OC | < 0.4
83 | COc1ccc(OC)c(/C=C/C(=O)Nc2ccc(OC)nc2)c1 | 4.7 (≈ 15 µM)
84 | Cc1ccc(-c2nc3cc(N)ccc3o2)cc1Br | 0.3 (≈ 0.99 µM)
85 | CCC(C)NC(=O)c1ccc(CN2CCc3ccccc3C2)cc1 (stereo not drawn) | 7.1 (≈ 22 µM)
86 | CC1CCN(C(=S)NC(=O)c2ccco2)CC1 | > 37.8
87 | COC(=O)CCC(=O)c1ccn(S(=O)(=O)c2ccccc2)c1 | 44.6 (≈ 139 µM)
88 | O=S(=O)(NCCN1CCCC1)c1ccc(Br)cc1 | 46.9 (≈ 141 µM)
